Data published in paper PMC11728001, “Design, Synthesis, and Biological Evaluation of Novel Urea-Containing Carnosic Acid Derivatives with Anticancer Activity” (International Journal of Molecular Sciences, 2024).

Legend:
Format in all cases: cell-based
[1] = tested on: HCT116 colorectal cancer cell line; assay: MTT cell viability assay, HCT116; conditions: Homo sapiens, HCT-116, 72 h incubation, mean ± SD
Procedure: The antiproliferative activity of CA 1 and its derivatives was evaluated against a colorectal cancer (CRC) cell line (HCT116) using the MTT assay. The anticancer drug cisplatin was used as the reference drug.
(§1) The effect of the compounds on cell viability was evaluated using the MTT assay. HCT116 (3000 cells/well), SW620 (8000 cells/well), SW480 (6000 cells/well), Caco-2 (4000 cells/well), A375 (1500 cells/well), MiaPaca-2 (2000 cells/well), and BJ (10,000 cells/well) cells were seeded in 96-well plates. After 24 h, the growth medium was replaced with a fresh medium containing the desired concentration of the compound or DMSO (control). After 72 h of incubation, the supernatant was removed and 100 µL of a mixture (1:1) of filtered MTT solution (1 mg/mL in PBS) with FBS-free medium was added to each well. After 1 h of incubation at 37 °C, the mixture was removed and 100 µL of DMSO was added to each well to dissolve the formed formazan crystals. Absorbance was immediately measured at 570 nm using a Benchmark Plus Microplate Reader (Bio-Rad Laboratories, Hercules, CA, USA). IC50 values were calculated using GraphPad Prism 9 software (GraphPad Software, San Diego, CA, USA) and expressed as the mean ± standard deviation (SD) of at least three independent experiments.

Caco-2 cells = assay: MTT cell viability assay, Caco-2; conditions: Homo sapiens, 72 h incubation, mean ± SD
Procedure: as §1

SW480 cells [2] = assay: Cell cycle assay (PI, FACS); conditions: SW480, IC50 concentration
Procedure: SW480 cells were seeded in 6-well plates and treated as described for the apoptosis assay. After centrifugation, the cells were resuspended in 500 µL DPBS and added dropwise to 4.5 mL 70% (v/v) cold ethanol. The cell suspension was kept at −20 °C for a minimum of 4 h. The cell suspension was then centrifuged, washed with cold DPBS, resuspended in 360 µL DPBS containing 10 µL RNase (10 mg/mL), and incubated for 1 h, at 37 °C, with agitation. Before FACS analysis, 20 µL PI solution (1 mg/mL) was added to the samples. FACS analysis was performed using a Gallios flow cytometer (Beckman Coulter, Brea, CA, USA) at 488 nm. Data were acquired from 1 × 10^4 cells and subsequently analyzed using the multicycle software provided by Phoenix Flow Systems (San Diego, CA, USA).

SOD2 (MnSOD) = assay: Western blot, SOD2 (MnSOD) expression in SW480 cells; conditions: SW480, IC50 concentration, 24, 48 and 72 h
Procedure: SW480 cells (1.68 × 10^5 cells/well) were seeded in 6-well plates and incubated at 37 °C for 24 h. […] At the end of the treatment period, cells were washed twice with ice-cold DPBS and incubated for 30 min. at 4 °C with lysis buffer containing 20 mM Tris-HCl (pH 7.5), 1 mM DTT, 0.2% Triton X-100, 1 mM Na-EDTA, 0.5 mM sodium deoxycholate, 1% proteases inhibitor cocktail, and 0.5% phosphatases inhibitor cocktail. The cells were scraped, sonicated, and centrifuged at 12,000× g for 20 min. at 4 °C. The supernatants were recovered, and the protein concentration was quantified using Pierce^TM BCA protein assay reagents A and B and Pierce^TM bovine serum albumin standard ampules (2 mg/mL).
Membranes were blocked with 5% skim milk in PBS-Tween-20 (0.1%) for 1 h at room temperature, following its incubation with the specific primary antibodies overnight at 4 °C (CDK4, CDK6, and SOD2 (MnSOD)). Exceptionally, the primary antibody against actin was only incubated for 30 min. at room temperature. The membranes were then washed with PBS-Tween-20 (0.1%) and incubated for 40 min. with an anti-mouse secondary antibody or for 1 h with an anti-rabbit secondary antibody. After incubation, the membranes were washed again with PBS-Tween-20 (0.1%) and treated with the Immobilon Western Chemiluminescent HRP Substrate Kit. […]

SW480 cells [3] = assay: Cell proliferation assay and cell doubling time; conditions: SW480 cells treated at IC50 concentration; control 42 h
Procedure: SW480 cells were seeded at a concentration of 1.68 × 10^5 cells per well in 6-well plates and incubated at 37 °C. […] Prior to treatment initiation (0 h), cells were trypsinized, washed with DPBS, and collected by centrifugation. The collected cells were resuspended in DPBS containing trypan blue and examined using an Invitrogen Countess 3 Automated Cell Counter (Thermo Fisher Scientific, Waltham, MA, USA) to determine the cell number and viability. This procedure was replicated at various treatment time points (24, 48, and 72 h) to generate a cell proliferation curve depicting the changes over time. Cell doubling time was calculated by dividing the natural logarithm of 2 by the growth rate.

[4] = tested on: BJ non-tumoral fibroblast cell line; assay: MTT cell viability assay, BJ; conditions: 72 h incubation
Procedure: as §1

[5] = tested on: MiaPaca-2 pancreatic cancer cells; assay: MTT cell viability assay, MiaPaca-2; conditions: Homo sapiens, MIA PaCa-2, 72 h incubation, mean ± SD
Procedure: as §1

CC(=O)Oc1c(C(C)C)cc2c(c1OC(C)=O)[C@@]1(NC(=O)NCCc3cccc(Cl)c3)CCCC(C)(C)[C@@H]1CC2 [Compound 14, (4bR,8aS)-4b-(3-(3-chlorophenethyl)ureido)-2-isopropyl-8,8-dimethyl-4b,5,6,7,8,8a,9,10-octahydrophenanthrene-3,4-diyl diacetate]
IC50 [1]: 9.8 ± 0.5 µM
IC50 (Caco-2 cells): 8 ± 0.5 µM
percentage of cells in the G0/G1 phase (SW480 cells [2]; 24 h, control 50.3%): 71%
percentage of cells in the G0/G1 phase (SW480 cells [2]; at the three time points (24, 48, 72 h)): higher than 66.6%
expression of SOD2 (MnSOD) (SOD2 (MnSOD)): no significant changes
cell doubling time (SW480 cells [3]): 70 h
IC50 [4]: > 25 µM
IC50 [5]: 9 ± 0.8 µM
